Calls of active or inactive are those of the source. No cut-off for these calls is given here.
Experiments:
[1] = target: T1, NAD-dependent protein deacetylase sirtuin-1 (Homo sapiens) (UniProt Q96EB6); experiment: Increase in SIRT1 (unknown origin) deacetylation activity at 10 uM
T1 sequence (whole entry): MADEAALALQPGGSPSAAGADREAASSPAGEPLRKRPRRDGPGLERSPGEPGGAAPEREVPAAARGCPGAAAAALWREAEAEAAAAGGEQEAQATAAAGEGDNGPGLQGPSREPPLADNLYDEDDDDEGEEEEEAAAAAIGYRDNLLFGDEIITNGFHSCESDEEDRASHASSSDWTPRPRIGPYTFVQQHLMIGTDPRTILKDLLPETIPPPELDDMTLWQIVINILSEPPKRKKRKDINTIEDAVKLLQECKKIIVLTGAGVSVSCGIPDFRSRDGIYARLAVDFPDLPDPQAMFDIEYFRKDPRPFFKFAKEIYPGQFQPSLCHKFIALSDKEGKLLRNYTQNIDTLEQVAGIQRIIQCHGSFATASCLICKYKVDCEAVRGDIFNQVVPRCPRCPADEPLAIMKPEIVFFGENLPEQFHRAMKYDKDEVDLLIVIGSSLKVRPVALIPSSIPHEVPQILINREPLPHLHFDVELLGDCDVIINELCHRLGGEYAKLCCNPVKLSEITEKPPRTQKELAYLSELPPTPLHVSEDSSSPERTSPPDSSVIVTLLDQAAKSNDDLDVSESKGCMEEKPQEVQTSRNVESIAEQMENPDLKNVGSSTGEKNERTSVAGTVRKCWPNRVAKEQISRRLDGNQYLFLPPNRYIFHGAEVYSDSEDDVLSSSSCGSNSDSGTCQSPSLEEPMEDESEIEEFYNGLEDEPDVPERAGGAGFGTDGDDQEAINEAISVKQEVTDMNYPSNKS

A549 = experiment: Cytotoxicity against human A549 cells after 48 hrs by MTT assay; type: functional, cell-based; conditions: A549, 48 h
[2] = Inhibition of Streptococcus mutans OMZ65 recombinant sortase A delta-40 mutant using Dabcyl-QALPETGEE-Edans as substrate after 1 hr by fluorescence spectrophotometry
K562 = experiment: Cytotoxicity against human K562 cells after 48 hrs by MTT assay; type: functional, cell-based; conditions: K562, 48 h
[3] = target: T1, NAD-dependent protein deacetylase sirtuin-1 (Homo sapiens); experiment: Stimulation of SIRT1 (unknown origin) expressed in HEK293 cells coexpressing p53-Luc assessed as decrease in p53 transcriptional activity; type: cell-based
[4] = target: T1, NAD-dependent protein deacetylase sirtuin-1 (Homo sapiens); experiment: Increase in SIRT1 (unknown origin) deacetylation activity
[5] = target: T1, NAD-dependent protein deacetylase sirtuin-1 (Homo sapiens); experiment: Stimulation of SIRT1 (unknown origin) expressed in HEK293 cells assessed as increase in intracellular NAD+/NADH ratio; type: cell-based

Compound | Activity [1] | IC50 (A549) | IC50 [2] | IC50 (K562) | Activity [3] | Activity [4] | Activity [5]
CC(C)(O)[C@@H]1Cc2cc3c(cc2O1)oc1c2ccc(O)cc2oc(=O)c31 | inactive | > 10 µM | 138 µM | > 10 µM |  |  | 
O=Cc1ccc(O)c(O)c1 [PROTOCATECHUALDEHYDE] | inactive | > 10 µM | 514 µM | > 10 µM |  |  | 
CC(C)=CCc1c(O)ccc(C(=O)/C=C/c2ccc(O)cc2)c1O [ISOBAVACHALCONE] | inactive | > 10 µM |  | > 10 µM |  |  | 
C=C(C)[C@@H]1Cc2cc3c(cc2O1)O[C@H](c1ccc(O)cc1)CC3=O | inactive | > 10 µM |  | > 10 µM |  |  | 
CC1(C)Oc2ccc(-c3coc4cc(O)ccc4c3=O)cc2C[C@@H]1O | inactive | > 10 µM | 236 µM | > 10 µM |  |  | 
C=C[C@@](C)(/C=C/c1ccc(O)cc1)C/C=C/C(C)(C)O | inactive | > 10 µM |  | > 10 µM |  |  | 
C=C(C)[C@@H]1Cc2cc3c(cc2O1)oc1c2ccc(O)cc2oc(=O)c31 | inactive | > 10 µM |  | > 10 µM |  |  | 
C=C(C)[C@H]1Cc2c(ccc3c2O/C(=C\c2ccc(O)c(O)c2)C3=O)O1 | inactive | > 10 µM |  | > 10 µM |  |  | 
Para-Hydroxymercuribenzoic acid |  |  | 118 µM |  |  |  | 
CC(C)=CCc1cc(-c2coc3cc(O)ccc3c2=O)ccc1O [NEOBAVAISOFLAVONE] | inactive | > 10 µM | 284 µM | > 10 µM |  |  | 
CC1(C)Oc2ccc(-c3coc4cc(O)ccc4c3=O)cc2[C@@H](O)[C@@H]1O | inactive | > 10 µM |  | > 10 µM |  |  | 
Oc1ccc(O)cc1 [HYDROQUINONE] | inactive | > 10 µM |  | > 10 µM |  |  | 
CC(C)(O)[C@H]1Cc2c(ccc3c2O/C(=C\c2ccc(O)c(O)c2)C3=O)O1 | Active | > 10 µM | 209 µM | > 10 µM | Dose-dependent effect | Dose-dependent effect | Dose-dependent effect
CC(C)(O)c1cc2c3c(ccc2o1)C(=O)C[C@@H](c1ccc(O)cc1)O3 | Active | > 10 µM | 135 µM | > 10 µM | Dose-dependent effect | Dose-dependent effect | Dose-dependent effect
CC1(C)Oc2ccc(-c3coc4cc(O)ccc4c3=O)cc2[C@H](O)[C@@H]1O | inactive | > 10 µM |  | > 10 µM |  |  | 
CC(C)(O)[C@@H]1Cc2cc3c(cc2O1)O[C@H](c1ccc(O)cc1)CC3=O | inactive | > 10 µM |  | > 10 µM |  |  | 
CC(C)=CCc1cc(C(=O)/C=C/c2ccc(O)cc2)c(O)cc1O [BROUSSOCHALCONE B] | inactive | > 10 µM |  | > 10 µM |  |  | 
C=C[C@@](C)(/C=C/c1ccc(O)cc1)CCC(=O)C(=C)C | inactive | > 10 µM |  | > 10 µM |  |  | 
CC(C)(O)[C@H]1Oc2cc3oc4c5ccc(O)cc5oc(=O)c4c3cc2[C@@H]1O | inactive | > 10 µM | 119 µM | > 10 µM |  |  | 
O=c1ccc2ccc3occc3c2o1 [ANGELICIN] | inactive | > 10 µM |  | > 10 µM |  |  | 
CC(C)(O)[C@@H]1Oc2ccc(-c3coc4cc(O)ccc4c3=O)cc2[C@H]1O | Active | > 10 µM |  | > 10 µM | Dose-dependent effect | Dose-dependent effect | Dose-dependent effect
O=Cc1ccc(O)cc1 [4-HYDROXYBENZALDEHYDE] | inactive | > 10 µM |  | > 10 µM |  |  | 
CC(C)=CCc1cc(-c2coc3cc(O)cc(O)c3c2=O)ccc1O [CORYLIN] | inactive | > 10 µM | 272 µM | > 10 µM |  |  | 
COc1cc2oc(-c3ccc(O)cc3)cc(=O)c2cc1CC=C(C)C [BAVACHININ] | inactive | > 10 µM |  | > 10 µM |  |  | 
CC(C)=CCc1cc2c(cc1O)O[C@H](c1ccc(O)cc1)CC2=O [BAVACHIN] | inactive | > 10 µM |  | > 10 µM |  |  | 
C=C[C@@](C)(/C=C/c1ccc(O)cc1)CC[C@@H](O)C(C)(C)O | inactive | > 10 µM |  | > 10 µM |  |  | 
O=c1ccc2cc3ccoc3cc2o1 [PSORALEN] | inactive | > 10 µM | 330 µM | > 10 µM |  |  | 
C=C[C@@](C)(/C=C/c1ccc(O)cc1)CCC1OC1(C)C (stereo not given in full) | inactive | > 10 µM |  | > 10 µM |  |  | 

Reference: ChEMBL document CHEMBL3576836, “Bioactive Metabolites from the Fruits of Psoralea corylifolia” (J Nat Prod, 2015)
